The source of these data is US9877927B2, “Inhibitor of odor caused by Furaneol” (Kao Corporation, priority 2013, dated 2018).

The target in assay [1] is T1, olfactory receptor OR5K1 (Homo sapiens, UniProt Q8NHB7).
T1 construct: expressed in transfected cells; host or cells: HEK293
T1 sequence (Q8NHB7 1-308): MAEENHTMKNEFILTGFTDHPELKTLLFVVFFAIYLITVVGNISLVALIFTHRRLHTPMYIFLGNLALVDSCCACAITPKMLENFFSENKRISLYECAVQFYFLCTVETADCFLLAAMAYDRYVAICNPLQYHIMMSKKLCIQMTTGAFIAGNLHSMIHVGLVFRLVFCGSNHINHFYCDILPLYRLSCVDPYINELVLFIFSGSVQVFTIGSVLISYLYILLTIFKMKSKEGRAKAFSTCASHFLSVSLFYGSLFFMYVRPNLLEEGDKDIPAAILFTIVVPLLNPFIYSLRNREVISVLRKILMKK
In words: Antagonistic activity against the response of OR5K1 to Furaneol (luciferase assay). It is filed as cell-based. The settings on record: Furaneol 3 mM, test substance 100 μM, HEK293 cells expressing OR5K1; vs Furaneol alone; read-out: Rate of inhibition of the response of OR5K1 to Furaneol. The procedure:
Furaneol (3 mM) and each test substance (100 μM) were added to HEK293 cells allowed to express the olfactory receptor OR5K1 by the same procedures as in Example 2. The response of the olfactory receptor was measured to evaluate change in receptor response caused by the addition of the test substance.
The rate of inhibition of the receptor response by the test substance was calculated as follows: firefly luciferase-derived luminescence intensity (Y) in the olfactory receptor OR5K1-expressing cells without Furaneol stimulation was subtracted from luminescence intensity (X) induced by stimulation with Furaneol alone to determine receptor activity (X−Y) based on the stimulation with Furaneol alone. Likewise, the luminescence intensity (Y) in the cells without Furaneol stimulation was subtracted from luminescence intensity (Z) induced by stimulation with the mixture of Furaneol and the test substance to determine receptor activity (Z−Y) in the presence of the test substance. The rate of reduction in the receptor activity (Z−Y) in the presence of the test substance with respect to the receptor activity (X−Y) based on the stimulation with Furaneol alone was calculated according to an expression shown below to determine the rate of inhibition of the receptor response by the test substance. In this assay, a plurality of independent duplicate experiments were performed. An average of the experiments in each run was obtained. Rate of inhibition (%)={1−(Z−Y)/(X−Y)}×100

Assay [2] deals with T1, olfactory receptor OR5K1. In words: Luciferase reporter gene assay, response of olfactory receptor to Furaneol. It is filed as cell-based. The text has this:
On the basis of sequence information registered in GenBank, each human olfactory receptor gene was cloned by PCR with Human Genomic DNA Female (G1521: Promega Corp.) as a template. Each gene thus amplified by PCR was inserted into a pENTR vector (Invitrogen Corp.) according to the manual. A NotI-AscI site present on the pENTR vector was recombined into a NotI-AscI site prepared downstream of a Flag-Rho tag sequence on a pME18S vector.
A gene (GenBank GI: 50234917) encoding a human receptor transporting protein, RTP1S was inserted into the EcoRI-XhoI site of the pME18S vector.
HEK293 cells expressing each of 400 types of human olfactory receptors were prepared. […]
The olfactory receptors expressed on the HEK293 cells are conjugated with intracellular Gas to activate adenylate cyclase, thereby increasing intracellular cAMP levels. In this study, their responses to Furaneol were measured using luciferase reporter gene assay which involved monitoring increase in intracellular cAMP level as luminescence intensity derived from a firefly luciferase gene (fluc2P-CRE-hygro). […]
A medium was removed from the cultures prepared in the preceding paragraph 3). […] The luciferase activity was measured using Dual-Glo™ luciferase assay system (Promega Corp.) according to the instruction manual of the product. […]
(In a reporter assay the amount or activity of a reporter protein is the signal.)

For the compound `CC(=O)O[C@]1(C)CC[C@@]23C[C@@H]1C(C)(C)[C@@H]2CC[C@H]3C` [Cedryl acetate], the inhibition at 100 µM in assay [1] was ≥ 50%.

`CC(C)=CCCC(C)=CC=O` [Citral]: the inhibition at 100 µM in assay [1] was ≥ 75%.

In the case of `CC1=C(O)C(=O)C(C)O1` (centres unmarked) [Furaneol, 2,5-dimethyl-4-hydroxy-3(2H)-furanone], the “Concentration dependence of OR5K1 response to Furaneol” value in assay [2] (Furaneol 0, 3, 10, 30, 100, 300, 1000, 3000 μM, OR5K1 with human RTP1S in HEK293 cells) is “concentration-dependent response”. Moreover, the “Response of olfactory receptors to Furaneol (fold increase in luminescence)” value in assay [2] (Furaneol 3 mM, 400 types of human olfactory receptors in HEK293 cells) was “only the olfactory receptor OR5K1 exhibited a response”.

Regarding `CC(=O)c1cc2c(cc1C)C(C)(C)C(C)CC2(C)C` [Tonalid(R), 1-(5,6,7,8-tetrahydro-3,5,5,6,8,8-hexamethyl-2-naphthalenyl)-ethanone], the inhibition at 100 µM in assay [1] is ≥ 75%.

As a reminder, the inhibition is how much of the control response was suppressed.
